According to patent publication US10092657B2, “Opsonized β-glucan preparations and methods” (Biothera, Inc., priority 2011, dated 2018):

Key:
human monocytes [1] = assay: iC3b staining on PGG β-glucan-bound monocytes (flow cytometry); assay type: cell-based; details: 100 μg/mL; 10% serum; 37° C.; two hours
Excerpt: Binding of PGG β-glucan to neutrophils and PBMC was done as above. iC3b deposition on these cells was detected by staining with a neo-epitope specific anti-iC3b Ab and PE-conjugated goat anti-mouse IgG and analyzing by flow cytometry.

human monocytes [2] = assay: Binding of PGG β-glucan after serum pre-treatment, monocytes; assay type: cell-based; details: 100 μg/mL; 10% HI serum; two hours at 37° C.
Procedure: PGG β-glucan at concentration 60-80 mg/mL was incubated with human serum at 1:10 volume ratio for 30 minutes in a 37° C. water bath. The serum-pretreated PGG β-glucan was added to neutrophils at 200 μg/mL or to PBMC at 100 μg/mL resuspended in RPM1 containing either 10% regular autologous serum or 10% HI serum at indicated time and temperature of incubation. Binding was then determined as described previously.
To determine the role of complement proteins in binding, experiments were performed as described above except for using serum containing 10% HI, compstatin-treated or methylamine (MA)-treated, EGTA- or EGTA+MgCl2 (MgEGTA)-treated, or factor D-blocked serum. Heat-inactivated (HI) serum was prepared by incubating serum in a 56° C. water bath for 30 minutes. […] Treatment of serum with methylamine (MA) was done by incubating serum with 0.67% of methylamine for 2.5 hours at 37° C., followed by three washes with DPBS using Amicon centrifugal filter unit with a 3K MW cut-off (Millipore, Billerica, Mass.). DPBS-treated serum was prepared in the same manner and used as control serum for MA-treated serum. For blocking of factor D in the serum, 166-32 at concentration 20 μg/mL was incubated with serum on ice for 30 minutes, and then used for binding studies. […]

human neutrophils [3] = assay: Binding of PGG β-glucan to human neutrophils (BfD IV staining, flow cytometry); assay type: cell-based
Procedure: Enriched neutrophils or PBMC were resuspended at 1×10^6 cells/mL in RPMI 1640 supplemented with 10% serum. PGG β-glucan at hexose concentrations 100 μg/mL, 200 μg/mL, or 400 μg/mL were added to neutrophils or PBMC and incubated in a 37° C., 5% CO2 humidified incubator for two hours. After incubation, cells were washed twice with FACS buffer (HBSS supplemented with 1% FBS and 0.1% sodium azide) to remove any unbound β-glucan, and subsequently treated with Fc block (Miltenyi Biotec, Auburn, Calif.). […] Cells were then incubated with FITC-conjugated F(ab′)2 goat anti-mouse IgM for 30 minutes at 4° C. and washed once with cold FACS buffer before fixing with 1% paraformaldehyde. In early optimization experiments, neutrophils, monocytes, and T cells were identified by staining with fluorescently labeled anti-CD 15, anti-CD 14, or anti-CD3 Abs, respectively. Events were collected on a LSRII flow cytometer (BD Biosciences, San Jose, Calif.) and analysis was performed using FLOWJO (Tree Star, Ashland, Oreg.). […] Surface binding of DTAF-conjugated β-glucan was subsequently assessed by flow cytometric analysis. […] The experiments to determine binding of PGG β-glucan at 200 μg/mL to neutrophils or at 100 μg/mL to PBMC were performed as described above with the following changes. For determining serum dependency, PGG β-glucan was incubated with neutrophils or PBMC resuspended in RPMI 1640 containing 2%, 5%, or 10% autologous serum at 37° C. for two hours. For time-course experiments, PGG β-glucan at indicated concentrations was incubated with cells resuspended in 10% autologous serum at 37° C. for 10 minutes, 20 minutes, 60 minutes, or 120 minutes. For temperature dependency experiments, PGG β-glucan at indicated concentrations was incubated with cells resuspended in 10% autologous serum for two hours at 4° C., room temperature, or 37° C.

T-cells = assay: Binding of PGG β-glucan to T-cells within PBMC (BfD IV staining, flow cytometry); assay type: cell-based, human; details: 100, 200, 400 μg/mL; 10% autologous serum; 37° C.; two hours
Procedure: Enriched neutrophils or PBMC were resuspended at 1×10^6 cells/mL in RPMI 1640 supplemented with 10% serum. PGG β-glucan at hexose concentrations 100 μg/mL, 200 μg/mL, or 400 μg/mL were added to neutrophils or PBMC and incubated in a 37° C., 5% CO2 humidified incubator for two hours. After incubation, cells were washed twice with FACS buffer (HBSS supplemented with 1% FBS and 0.1% sodium azide) to remove any unbound β-glucan, and subsequently treated with Fc block (Miltenyi Biotec, Auburn, Calif.). After the Fc block step, cells were stained with the BfD IV Ab for 30 minutes at 4° C. and washed twice with cold FACS buffer. Cells were then incubated with FITC-conjugated F(ab′)2 goat anti-mouse IgM for 30 minutes at 4° C. and washed once with cold FACS buffer before fixing with 1% paraformaldehyde.
In early optimization experiments, neutrophils, monocytes, and T cells were identified by staining with fluorescently labeled anti-CD 15, anti-CD 14, or anti-CD3 Abs, respectively. […] Surface binding of DTAF-conjugated β-glucan was subsequently assessed by flow cytometric analysis. To determine receptor-specific binding, binding of 25 μg/mL of DTAF-labeled PGG β-glucan was assessed by incubating the labeled β-glucan with the cells in the presence of 10 mg/mL of unlabeled PGG β-glucan or dextran.

human neutrophils [4] = assay: Binding of DTAF-labeled PGG β-glucan to human neutrophils, with excess unlabeled competitor; assay type: cell-based; details: 10 mg/mL unlabeled competitor; 25 μg/mL DTAF-labeled β-glucan
Procedure: In early optimization experiments, neutrophils, monocytes, and T cells were identified by staining with fluorescently labeled anti-CD 15, anti-CD 14, or anti-CD3 Abs, respectively. Events were collected on a LSRII flow cytometer (BD Biosciences, San Jose, Calif.) and analysis was performed using FLOWJO (Tree Star, Ashland, Oreg.). For assessing binding of DTAF-labeled PGG β-glucan to human neutrophils, 25 βg/mL, 100 μg/mL, or 400 μg/mL of labeled β-glucan was added to neutrophils resuspended in RPMI/10% serum, incubated in a 37° C., 5% CO2 humidified incubator for one hour, washed twice with cold FACS buffer, and fixed with 1% paraformaldehyde. Surface binding of DTAF-conjugated β-glucan was subsequently assessed by flow cytometric analysis.

[5] = 2%, 5% or 10% autologous serum, 37° C., two hours

Substance: β(1,6)-[poly-1,3)-D-glucopyranosyl]-poly-β(1,3)-D-glucopyranose [PGG β-glucan]
- iC3b staining on cells incubated with β-glucan vs serum alone (human monocytes [1]): increased staining of iC3b
- Extent of rescued binding to cells in HI serum (MFI, percentage of BfD IV positive cells) (human monocytes [2]): minimal
- Minimum concentration of β-glucan detected on the cells by the BfD IV detection system (human neutrophils [3]): 100 µg/mL
- Incubation time of maximal binding (human neutrophils [3]; 200 μg/mL, 10% serum, 37° C.): 30 to 60 min
- Percentage of serum at which maximal binding occurred (human neutrophils [3]; [5]): 10%
- Percentage of serum at which minimum binding occurred (human neutrophils [3]; [5]): 2%
- Concentration at which percentage of BfD IV positive cells reached a plateau (human neutrophils [3]; 10% autologous serum, 37° C., two hours): 200 µg/mL
- Binding (MFI and percentage of BfD IV positive cells) (human neutrophils [3]; 100, 200, 400 μg/mL, 10% autologous serum, 37° C., two hours): bound to both neutrophils and monocytes
- Incubation temperature of maximal binding (human neutrophils [3]; two hours at 4° C., room temperature or 37° C., 10% serum): 37 °C
- Binding (MFI and percentage of BfD IV positive cells) (T-cells): not to T-cells
- Blocking of DTAF-labeled β-glucan staining by excess unlabeled glucan (human neutrophils [4]): blocked by excess unlabeled β-glucan
